Patent US20070065484A1, “In situ occlusion using natural biodegradable polysaccharides” (priority 2005, published 2007)
Where two headings read alike, the source gives them in different places.

Tested on: PC-12 cells
Settings: incubation 15 min
Method: Cell suspensions were prepared as follows: PC-12 cells (ATCC; passage 5; 75% confluency) were harvested from a T-75 flask using Trypsin-EDTA for 2 minutes. The cells were placed in a 15 mL polyethylene conical (VWR) and centrifuged in F-12k media without serum for 4 minutes at 500 rpm. The cells were counted using a hemocytometer, centrifuged for 4 minutes at 500 rpm, and resuspended at 600,000 cells/mL in sterile PBS.
In order to determine the effect of individual components of the matrix forming compositions on cell viability, solutions A-G were independently mixed with PC-12 cells. 50 uL of cell suspension was added to 350 uL of solutions A-G (Table 4). After a 15 minute incubation, cell viability was assessed using a Live/Dead™ Viability/Cytotoxicity Kit (cat. # L3224; Molecular Probes, Eugene, Oreg.).
The effect of a formed matrix on cell viability was also tested. To form the PD-A matrix, solution #1 (200 mg PD-A, 10 uL TEMED, 20 uL 1N HCl, 470 uL PBS) was added in the amount of 200 uL to a 1.6 ml eppendorf (VWR). Solution #2 (400 mg PD-A, 10 mg Potassium persulfate, 75K PC-12 cells, 500 uL PBS ) was added in the amount of 200 uL to solution #1 in the eppendorf and mixed for 10 seconds. After a 15 minute incubation, cell viability was assessed using the Live/Dead™ Viability/Cytotoxicity Kit.

## N.N.O=S(=O)(O)OOS(=O)(=O)O [Ammonium persulfate]
10 mg/ml in PBS
  Cell viability (%): 90%
120 mg/ml in PBS
  Cell viability (%): 90%

## O=S(=O)([O-])OOS(=O)(=O)[O-].[K+].[K+] [Potassium persulfate]
10 mg/ml in PBS
  Cell viability (%): 90%

## O=S(=O)([O-])OOS(=O)(=O)[O-].[Na+].[Na+] [Sodium persulfate]
5 mg/ml in PBS
  Cell viability (%): 90%

## CN(C)CCN(C)C [TEMED/PBS, N,N,N′,N′-Tetramethylethylenediamine]
0.2% (V/V) in PBS
  Cell viability (%): 10-30%
